The text below walks through data of ChEMBL document CHEMBL2016569, “Pyronepolyene C-glucosides with NF-κB inhibitory and anti-influenza A viral (H1N1) activities from the sponge-associated fungus Epicoccum sp. JJY40” (Bioorg Med Chem Lett, 2012).

Test [1] in a line: Inhibition of LPS-induced NFkappaB expression in mouse RAW264.7 cells pretreated for 4 hrs before LPS challenge measured after 24 hrs by luciferase reporter gene assay relative to control. Type of test: cell-based.
The test system of another test is Influenza A virus. Briefly: Antiviral activity against Influenza A virus (A/Puerto Rico/8/34(H1N1)) infected in MDCK cells assessed as inhibition of virus induced cytopathicity after 48 hrs. It is filed as functional, organism-based. Conditions: A/Puerto Rico/8/1934(H1N1).
Another test deals with RAW264.7. Put plainly: Inhibition of LPS-induced NFkappaB expression in mouse RAW264.7 cells at 0.1 uM pretreated for 4 hrs before LPS challenge measured after 24 hrs by luciferase reporter gene assay relative to control. It is filed as cell-based. Background: Reporter assays use an easily measured gene product as a stand-in for the process of interest.

`CCC(C)CC(C)/C=C(/C=C(C)\C=C\C=C\C=C\C=C\C=C\c1cc(O)c([C@@H]2O[C@H](CO)[C@H](O)[C@H](O)[C@H]2O)c(=O)o1)C(=O)O` (stereo partly specified): the IC50 – broadly, the concentration that gives 50% inhibition – turned out to be 40 µM in test [1] and 91.5 µM with Influenza A virus.

In the case of `NC(=O)c1ncn([C@@H]2O[C@H](CO)[C@@H](O)[C@H]2O)n1` [RIBAVIRIN], the half-inhibitory concentration (IC50) in the test with Influenza A virus was found to be 115 µM.

For the compound `S=C(S)N1CCCC1`, the inhibition (commonly the relative decrease from the control value, in per cent) in the test on RAW264.7 stood at 85%.

Take `CCC(C)CC(C)/C=C(/C=C(C)/C=C/C=C/C=C/C=C/C=C/c1cc(O)c([C@@H]2O[C@H](CO)[C@H](O)[C@H](O)[C@H]2O)c(=O)o1)C(=O)O` (stereo partly specified): the concentration for half-maximal inhibition (IC50) came out at 50 µM in test [1] and 101 µM with Influenza A virus.
